Data: ChEMBL document CHEMBL3217563, “Second generation analogues of RKA182: synthetic tetraoxanes with outstanding in vitro and in vivo antimalarial activities” (Medchemcomm, 2011)

Columns and labels:
Plasmodium falciparum [1] = test: Antiplasmodial activity against chloroquine-resistant Plasmodium falciparum K1 infected in human erythrocytes assessed as [3H]hypoxanthine incorporation after 48 hrs by betaplate liquid scintillation counting analysis; format: functional, organism-based
Plasmodium falciparum [2] = test: Antiplasmodial activity against Plasmodium falciparum 3D7 infected in human erythrocytes assessed as [3H]hypoxanthine incorporation after 48 hrs by betaplate liquid scintillation counting analysis; format: functional, organism-based
Plasmodium berghei = test: Antimalarial activity against Plasmodium berghei ANKA infected in mouse assessed as suppression of parasitaemia at 30 mg/kg, po administered for 3 days measured on day 4 relative to control; format: functional
Plasmodium falciparum [3] = test: Selectivity ratio of IC50 for Plasmodium falciparum 3D7 infected in human erythrocytes to IC50 for Plasmodium falciparum K1 infected in human erythrocytes; format: functional
Mus musculus = test: Antimalarial activity against Plasmodium berghei ANKA infected in po dosed mouse assessed as suppression of parasitaemia administered for 3 days measured on day 4 relative to control; format: functional
[4] = Metabolic stability in human liver microsomes assessed as compound remaining at 10 ug/ml after 10 mins by LC/MS/MS analysis relative to control; format: ADME; conditions: read-out: Stability
[5] = Metabolic stability in human liver microsomes assessed as compound remaining at 10 ug/ml after 30 mins by LC/MS/MS analysis relative to control; format: ADME; conditions: read-out: Stability
[6] = Metabolic stability in human liver microsomes assessed as compound remaining at 10 ug/ml after 60 mins by LC/MS/MS analysis relative to control; format: ADME; conditions: read-out: Stability

| SMILES | IC50 (Plasmodium falciparum [1]) [nM] | IC50 (Plasmodium falciparum [2]; Plasmodium falciparum, 3D7) [nM] | Activity (Plasmodium berghei) [%] | also measured |
| --- | --- | --- | --- | --- |
| C1CCN(C2CCC3(CC2)OOC2(OO3)C3CC4CC(C3)CC2C4)CC1 (stereo not drawn) | 0.4 | 0.6 | – | – |
| O=C1CN(C2CCC3(CC2)OOC2(OO3)C3CC4CC(C3)CC2C4)CCN1 (stereo not drawn) | – | 3.5 | 98.8 | – |
| CC(C)(C)OC(=O)NC1CCN(C2CCC3(CC2)OOC2(OO3)C3CC4CC(C3)CC2C4)CC1 (stereo not drawn) | – | 1 | – | – |
| FC1(F)CCC(NC2CCC3(CC2)OOC2(OO3)C3CC4CC(C3)CC2C4)CC1 (stereo not drawn) | 0.9 | 0.4 | – | – |
| CC(C)(C)NC1CCC2(CC1)OOC1(OO2)C2CC3CC(C2)CC1C3 (stereo not drawn) | – | 1.3 | 98.7 | – |
| C1CN(C2CCC3(CC2)OOC2(OO3)C3CC4CC(C3)CC2C4)CCO1 (stereo not drawn) | 0.4 | 0.4 | – | – |
| C1CCC(NC2CCC3(CC2)OOC2(OO3)C3CC4CC(C3)CC2C4)CC1 (stereo not drawn) | 0.2 | 0.4 | – | Ratio IC50 (Plasmodium falciparum [3]): 25 |
| C1CC(NC2CCC3(CC2)OOC2(OO3)C3CC4CC(C3)CC2C4)CCO1 (stereo not drawn) | 0.4 | 0.7 | – | ED50 (Mus musculus): 2.8 mg/kg; ED90 (Mus musculus): 18 mg/kg |
| NC1CCN(C2CCC3(CC2)OOC2(OO3)C3CC4CC(C3)CC2C4)CC1 (stereo not drawn) | 1.2 | – | – | IC50 (Plasmodium falciparum [2]): 1.2 nM; remaining at 10 min, 10 ug/ml [4]: 86.7%; remaining at 0.5 h, 10 ug/ml [5]: 73.6%; remaining at 1 h, 10 ug/ml [6]: 57.4% |
| O=S1(=O)CC[N+]([O-])(C2CCC3(CC2)OOC2(OO3)C3CC4CC(C3)CC2C4)CC1 (stereo not drawn) | 2.5 | 3.7 | – | – |
| CN1CCN(C2CCN(C(=O)CC3CCC4(CC3)OOC3(OO4)C4CC5CC(C4)CC3C5)CC2)CC1 (stereo not drawn) | 1.12 | 0.819 | – | remaining at 10 min, 10 ug/ml [4]: 62.9%; remaining at 0.5 h, 10 ug/ml [5]: 40.6%; remaining at 1 h, 10 ug/ml [6]: 39.5% |
| C1CC(NC2CCC3(CC2)OOC2(OO3)C3CC4CC(C3)CC2C4)CCO1.Cl (stereo not drawn) | – | – | – | ED50 (Mus musculus): 2.3 mg/kg; ED90 (Mus musculus): 11 mg/kg; IC50 (Plasmodium falciparum [2]): 1 nM |
| CN1CCC(NC2CCC3(CC2)OOC2(OO3)C3CC4CC(C3)CC2C4)CC1 (stereo not drawn) | 1.1 | 0.4 | 99.2 | – |
| C[C@H]1[C@H](OC(=O)CCC(=O)O)O[C@@H]2O[C@@]3(C)CC[C@H]4[C@H](C)CC[C@@H]1[C@@]24OO3 [ARTESUNATE] | 4.9 | – | 99.6 | ED50 (Mus musculus): 2.8 mg/kg; ED90 (Mus musculus): 18 mg/kg |
| FC1(F)CCN(C2CCC3(CC2)OOC2(OO3)C3CC4CC(C3)CC2C4)CC1 (stereo not drawn) | 1.3 | 0.6 | 99.8 | ED50 (Mus musculus): 9.4 mg/kg; ED90 (Mus musculus): 34 mg/kg |
| C1CCN(C2CCC3(CC2)OOC2(OO3)C3CC4CC(C3)CC2C4)C1 (stereo not drawn) | 1 | 0.7 | 99.8 | – |
| Cc1ccc(S(=O)(=O)O)cc1.NC1CCN(C2CCC3(CC2)OOC2(OO3)C3CC4CC(C3)CC2C4)CC1 (stereo not drawn) | – | – | 99.9 | ED50 (Mus musculus): 3.7 mg/kg; ED90 (Mus musculus): 10 mg/kg; IC50 (Plasmodium falciparum [2]): 2.5 nM |
| C1C2CC3CC1CC(C2)C31OOC2(CCC(NC3CC3)CC2)OO1 (stereo not drawn) | – | 1.5 | 99.7 | – |
| C1CCN(C2CCN(C3CCC4(CC3)OOC3(OO4)C4CC5CC(C4)CC3C5)CC2)CC1 (stereo not drawn) | 0.2 | 2.4 | 99.7 | Ratio IC50 (Plasmodium falciparum [3]): 25 |
